Results taken from article PMC11737796 (PLOS ONE, 2025).
“And” between values parts separate entries of the source, which are not always exact repeats. Equal entries are not always repeated. Where two headings read alike, the source gives them in different places.

Columns and labels:
[1] = molecular target: T1, recombinant human RORγt LBD (Homo sapiens, UniProt P51449); assay: Human RORγt radioligand competition binding assay
T1 sequence (P51449 258-518): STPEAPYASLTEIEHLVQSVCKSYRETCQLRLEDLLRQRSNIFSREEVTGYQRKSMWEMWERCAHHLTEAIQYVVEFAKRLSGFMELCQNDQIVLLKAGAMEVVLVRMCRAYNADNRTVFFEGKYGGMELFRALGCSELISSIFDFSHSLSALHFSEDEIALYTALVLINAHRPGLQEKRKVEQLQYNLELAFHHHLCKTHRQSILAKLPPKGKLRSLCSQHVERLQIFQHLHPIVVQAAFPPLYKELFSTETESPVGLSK
Protocol: The assay was run in white polystyrene flat-bottom 384-well plates (Greiner, cat. No. 781075). Assays were carried out in 40 μl reaction volumes. A concentration range of test ligands in 0.4 μl of DMSO were added to assay plates using an acoustic liquid dispenser. […] Test plates were incubated for 16 hours and read using a LEADseeker (GE Healthcare, USA) Multimodality imaging instrument.
(§1) The raw data from the radio-ligand and co-factor recruitment assays were transformed to % effect using the equation:
(§2) Compound % effect = 100*[(X-min)/(max-min)]
(§3) where X represents the effect in the presence of test compound and max and min are the effects in presence of the maximum and minimum controls respectively.
(§4) The data was plotted to generate concentration response profiles and the concentration-response curves were fitted to the data using the non-linear regression analysis; 4 parameter logistic smart fit method in the Analyser application of the Genedata® Screener software (Genedata, Inc., Basel, Switzerland). […] Ki was calculated from the IC50 value using the equation Ki = IC50/1+[L]/Kd)

[2] = molecular target: T2, recombinant murine RORγt LBD (Mus musculus, UniProt P51450); assay: Murine RORγt radioligand competition binding assay; conditions: for Mouse ligand binding Response (%): raw points of replicate experiments
T2 construct: 10nM purified HN-AVI-GST-TCS-mRORγ(aa256-516) was mixed with
T2 sequence (P51450 256-516): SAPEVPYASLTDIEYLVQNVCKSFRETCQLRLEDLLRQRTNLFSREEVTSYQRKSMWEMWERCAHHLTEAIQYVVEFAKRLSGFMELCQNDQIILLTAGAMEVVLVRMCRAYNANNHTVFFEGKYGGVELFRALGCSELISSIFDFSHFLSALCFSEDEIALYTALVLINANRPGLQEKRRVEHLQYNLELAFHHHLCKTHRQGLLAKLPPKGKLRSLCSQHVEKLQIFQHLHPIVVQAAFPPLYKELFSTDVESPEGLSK
Protocol: The assay was run in white/clear polystyrene flat-bottom 384-well plates (Greiner, cat. No. 781095). Assays were carried out in 40 μl reaction volumes. 0.125 μl of a fixed concentration range of test ligands dissolved in DMSO were added to assay plates using an acoustic liquid dispenser.
as §1, §2, §3, §4

thymic lymphomas [3] = conditions: rats; cited from earlier work
thymic lymphomas [4] = conditions: mice; cited from earlier work
human RORα LBD = molecular target: T3, human RORα LBD (Homo sapiens, UniProt P35398); assay: RORα co-factor recruitment assay; assay type: biochemical; conditions: raw points; for RORa agonism Response (%): agonism mode; for RORa inverse agonism Response (%): inverse agonism mode
T3 construct: 180 nM Protein (His6-tcs-hRORαLBD)
T3 sequence (P35398 272-510 limits assumed): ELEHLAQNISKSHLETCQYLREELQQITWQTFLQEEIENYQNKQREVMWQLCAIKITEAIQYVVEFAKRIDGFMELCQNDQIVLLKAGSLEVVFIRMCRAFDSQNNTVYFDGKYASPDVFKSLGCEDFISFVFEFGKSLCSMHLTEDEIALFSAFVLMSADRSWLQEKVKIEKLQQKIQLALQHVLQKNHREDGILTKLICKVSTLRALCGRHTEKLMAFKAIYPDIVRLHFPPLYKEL
Protocol: The assay was run in black 384 well plates (Greiner: 784900). A 0.2 μl volume of a fixed concentration range of test ligands dissolved in DMSO were added to assay plates using an acoustic liquid dispenser. Two pre-mixes were prepared in falcon tubes. Pre-mix 1 comprised 180 nM Protein (His6-tcs-hRORαLBD) and 8 nM Lance Eu-W1024-anti 6xHis in assay buffer, 50 mM Hepes pH7.4, 100 mM NaCl, 0.1% (w/v) BSA, 1 mM TCEP which was incubated for 30 minutes at room temperature before dispensing 10 μl to assay plates. Then, pre-mix 2 comprising 200 nM biotinylated PGC1alpha peptide and 50 nM streptavidin APC in assay buffer, was prepared and incubated for 30 minutes at room temperature before adding 10 μl to assay plates containing test compound and premix 1. Plates were incubated at room temperature for 1 hour in the dark, prior to reading in a Pherastar multi-mode plate reader (BMG LABTECH) using HTRF filter set (ex 320 nm, em 612 and 665 nm). The FRET signal at 665 nm was divided by the signal at 612 nm and multiplied by 10,000 to generate a signal ratio value for each well.
as §1, §2, §3, §4

[5] = system: IL-17A production in primary human Th17 cells; assay: Primary human Th17 cell assay (IL-17A release); assay type: cell-based
Protocol: Peripheral blood mononuclear cells were isolated from heparin treated human whole blood from healthy donors by density gradient centrifugation. […] On day 4, supernatants were collected and IL-17A was measured using a Human IL-17A HTRF Assay kit (Cisbio/PerkinElmer, MA, USA) according to the manufacturer’s protocol.
Genedata Screener® software (Genedata, Inc., Basel, Switzerland) was used for data normalization, curve fitting and calculation of IC50 for IL-17A inhibition as well as for cell viability. Raw data from the Human IL-17A HTRF Assay and CellTiter-Glo® Luminescent Cell Viability assay was transformed to % effect according to the formula:
Compound % effect = 100*[(X-min)/(max-min)],
where X represents the effect in the presence of test compound. […] For the cell viability calculations, 2-(2,2-dicyclohexylethyl)piperidine at 10 μM was used as maximal toxicity control while DMSO was used as minimal toxicity control. A four-parameter logistic smart fit method in the Analyser application of the Genedata® Screener software was used for curve fitting of the % effect data and IC50 calculation.

mouse thymocytes = assay: Mouse thymocyte apoptosis assay ex vivo; assay type: cell-based; conditions: 26 hours, AnnexinV and 7AAD staining
Protocol: The thymus from a female C57BL/6NCrl (Charles River) mouse aged around 7 weeks was dissected out after giving the mouse a lethal i.p. injection of penthobarbital. Single cell suspension of thymocytes was prepared by disrupting the thymus through a 70 μm cell strainer with the top of a sterile 5 ml syringe plunger in DPBS (without Ca/Mg). Cells were filtered through a 40 μm cell strainer and washed in serum-free media before being resuspended in complete media (RPMI1640 with L-glutamine supplemented with 10% heat inactivated foetal bovine serum (FBS) (Gibco/Invitrogen) and 50 μM 2-mercaptoethanol (Gibco/Invitrogen).
Cells were seeded at 500 000 cells/well in 96-well plates (U-bottom, cat #3799, Corning, MA, USA) in the presence of compounds or DMSO and cultured for 26 hours (37°C, 5% CO2). The thymocytes were then washed twice in cold DPBS (without Ca/Mg) and stained with APC AnnexinV (#550475, BD Pharmingen, BD Biosciences, CA, USA) and 7AAD (#559925, BD Pharmingen) in AnnexinV Binding buffer (#556454, BD Pharmingen) for 15 minutes at RT (dark) in order to separate live cells from dead, early apoptotic and late apoptotic cells when analysed on the BD Accuri C6 (BD Biosciences, CA, USA).
The compound effect on the percentage of surviving cells relative to the DMSO control were calculated using the following formula; […]

[6] = Mouse plasma protein binding; assay type: in vitro ADME
From the text: Table 1 Overview of compound potencies in multiple assays. | column: 1; 2; 3; 4; 5; 6

IMQ model = conditions: cited from earlier work
thymocyte numbers = conditions: bi-daily administration of 10 mg/kg, after two days; cited from earlier work
[7] = tritiated ligand, used for Ki calculation

CCS(=O)(=O)c1ccc(CC(=O)Nc2cc(-c3ccccc3COC)cs2)cc1 [2-(4-(ethylsulfonyl)phenyl)-N-(4-(2-(methoxymethyl)phenyl)thiophen-2-yl)acetamide, reference compound]
IC50 ([1]; the ligand that is used tritiated as radioligand, n = 6): 0.0479 µM | Kd [1, 7]: 0.017 µM | IC50 ([2]; the ligand that is used tritiated as radioligand, n = 3): 0.123 µM | Kd [2, 7]: 0.045 µM

C[C@H]1C[C@H](C(=O)O)CC[C@H]1C(=O)N1CC[C@@]2(S(=O)(=O)c3ccc(F)cc3)c3ccc(C(F)(C(F)(F)F)C(F)(F)F)cc3CC[C@@H]12 [BMS-986251]
thymic lymphomas (thymic lymphomas [3]): thymic lymphomas | thymic lymphomas (thymic lymphomas [4]): thymic lymphomas

CC(=O)N1Cc2cc(S(C)(=O)=O)ccc2[C@@H]1C(=O)Nc1ccc(C(O)(C(F)(F)F)C(F)(F)F)cc1 [Compound 5]
Mouse ligand binding Response (%) ([2]; -LOG10(Concentration) 5): -100.443% and -98.9% | Mouse ligand binding Response (%) ([2]; -LOG10(Concentration) 5.5): -97.044% and -97.709% and -95.886% | Mouse ligand binding Response (%) ([2]; -LOG10(Concentration) 6): -90.54% and -92.979% and -82.118% | Mouse ligand binding Response (%) ([2]; -LOG10(Concentration) 6.5): -75.979% and -75.927% | Mouse ligand binding Response (%) ([2]; -LOG10(Concentration) 7): -66.593% and -61.493% and -41.548% | Mouse ligand binding Response (%) ([2]; -LOG10(Concentration) 7.5): -41.39% and -32.816% and -24.196% | Mouse ligand binding Response (%) ([2]; -LOG10(Concentration) 8): -17.738% and -1.711% and -32.373% | Mouse ligand binding Response (%) ([2]; -LOG10(Concentration) 8.5): -14.117% and 14.175% | Mouse ligand binding Response (%) ([2]; -LOG10(Concentration) 9): -4.804% and 10.02% and -17.221% | Mouse ligand binding Response (%) ([2]; -LOG10(Concentration) 9.5): -4.804% and 5.051% and -11.899% | RORa agonism Response (%) (human RORα LBD; -LOG10(Concentration) 4.5): 151.862% | RORa agonism Response (%) (human RORα LBD; -LOG10(Concentration) 5): 149.498% | RORa agonism Response (%) (human RORα LBD; -LOG10(Concentration) 5.5): 136.244% | RORa agonism Response (%) (human RORα LBD; -LOG10(Concentration) 6): 110.728% | RORa agonism Response (%) (human RORα LBD; -LOG10(Concentration) 6.5): 68.027% | RORa agonism Response (%) (human RORα LBD; -LOG10(Concentration) 7): 28.348% | RORa agonism Response (%) (human RORα LBD; -LOG10(Concentration) 7.5): 7.215% | RORa agonism Response (%) (human RORα LBD; -LOG10(Concentration) 8): 11.627% | RORa agonism Response (%) (human RORα LBD; -LOG10(Concentration) 8.5): 1.827% | RORa agonism Response (%) (human RORα LBD; -LOG10(Concentration) 9): 1.839% | RORa inverse agonism Response (%) (human RORα LBD; -LOG10(Concentration) 4.5): 135.32% | RORa inverse agonism Response (%) (human RORα LBD; -LOG10(Concentration) 5): 141.906% | RORa inverse agonism Response (%) (human RORα LBD; -LOG10(Concentration) 5.5): 137.911% | RORa inverse agonism Response (%) (human RORα LBD; -LOG10(Concentration) 6): 125.139% | RORa inverse agonism Response (%) (human RORα LBD; -LOG10(Concentration) 6.5): 92.31% | RORa inverse agonism Response (%) (human RORα LBD; -LOG10(Concentration) 7): 46.105% | RORa inverse agonism Response (%) (human RORα LBD; -LOG10(Concentration) 7.5): 12.144% | RORa inverse agonism Response (%) (human RORα LBD; -LOG10(Concentration) 8): 1.673% | RORa inverse agonism Response (%) (human RORα LBD; -LOG10(Concentration) 8.5): -4.289% | RORa inverse agonism Response (%) (human RORα LBD; -LOG10(Concentration) 9): -3.197% | Human Th17 Response (%) ([5]; -LOG10(Concentration) 6.5, single points per experiment): -83.16% and -87.655% and -78.367% and -82.722% | Human IL-17A in Th17 cells ([5]; IL-17A in supernatants after 4 days): 7.8 ± 0.2 (45) | Thymocyte apoptosis (mouse thymocytes): 6.6 ± 0.1 (4) | Mouse PPB (% unbound) [6]: 18.6 (1) % | ear thickness (IMQ model; IMQ model): significantly but partially reduced | effect in the IMQ model (IMQ model; repeated daily dosing of 15 mg/kg): a larger effect | effect on thymocyte numbers (thymocyte numbers): did not have a significant effect
